The structures appear in SMILES notation.

In test [1] the test system is A2780 cells. The test is described as follows: Cell Proliferation Assay (Cell Titer Glo), A2780. In kind it is cell-based. Particulars: Homo sapiens; cell proliferation, A2780 cells; read-out: CPEC50 A2780. In a few lines:
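Cells seeded at 1000/well, allowed to adhere 3-5 h, then exposed to DMSO-dissolved compounds for 3 days at 37° C., 5% CO2. Medium replaced before Cell Titer Glo addition; luminescence read after 10 min.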
In general terms: In ATP-based viability assays light output follows the ATP content of the culture.

For test [2], the target named is T1, PDK1 kinase (Homo sapiens, UniProt O15530).
T1 sequence (O15530 1-556): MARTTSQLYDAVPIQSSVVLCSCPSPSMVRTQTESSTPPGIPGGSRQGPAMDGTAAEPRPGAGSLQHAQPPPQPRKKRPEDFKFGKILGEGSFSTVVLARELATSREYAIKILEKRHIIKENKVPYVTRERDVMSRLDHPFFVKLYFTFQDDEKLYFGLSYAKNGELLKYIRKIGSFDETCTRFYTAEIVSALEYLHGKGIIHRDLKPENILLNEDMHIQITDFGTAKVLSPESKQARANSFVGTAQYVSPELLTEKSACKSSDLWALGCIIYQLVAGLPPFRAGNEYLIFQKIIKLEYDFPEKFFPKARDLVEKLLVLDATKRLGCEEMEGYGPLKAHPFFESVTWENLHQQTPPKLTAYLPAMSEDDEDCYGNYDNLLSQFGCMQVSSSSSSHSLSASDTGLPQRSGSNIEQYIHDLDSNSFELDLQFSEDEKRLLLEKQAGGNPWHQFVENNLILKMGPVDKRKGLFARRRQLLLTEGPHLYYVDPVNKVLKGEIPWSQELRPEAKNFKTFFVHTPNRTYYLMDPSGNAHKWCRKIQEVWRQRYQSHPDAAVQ
The test is described as follows: PDK1 Kinase Alpha Screen Assay. The format is biochemical. The conditions noted are these: PDK1 Kinase Alpha Screen Assay; read-out: PDK1 IC50. The procedure, abridged: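 Biotinylated PDK1-4 peptide (50 nM) phosphorylated by PDK1 with 10 uM ATP in pH 7.5 Tris/MgCl2/DTT buffer, 2.5% DMSO, for 3-18 hours. EDTA stop, then AlphaScreen detection with phospho-(Ser/Thr) PKA substrate antibody and protein A/streptavidin beads after overnight room-temperature development.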

Test [3] concerns PC3MM cells. The test is described as follows: Cell Proliferation Assay (Cell Titer Glo), PC3MM. The format is cell-based. The conditions noted are these: cell proliferation, PC3MM cells; read-out: CPEC50 PC3MM. Here is the method:
IV. Cell Proliferation Assay Protocol:
A2780, PC-3, or PC3MM cells were seeded at 1000 cells/well in 100 μL/well (10.000 cells/mL) growth media in 96-well plates. Cells were allowed to adhere to the bottom of plates for 3-5 hours in a 37° C. 5% CO2 incubator. Compounds were dissolved in DMSO and then transferred to the cell plates. The cells were incubated with the compounds for 3 days in a 37° C. 5% CO2 incubator. The growth medium containing the compounds was then removed from the cells and fresh medium was added, followed by 100 μL of Cell Titer Glo assay reagent (Promega). This mixture was shaken for 1 minute and then incubated without shaking for 10 minutes. Activity determinations for the compounds were made by detection on a Trilux Instrument.

As to `CC(=O)c1ccc(-c2cccc3cnc(Nc4ccc(S(N)(=O)=O)cc4)nc23)cc1` [Compound 731, 4-(8-(4-acetylphenyl)quinazolin-2-ylamino)benzenesulfonamide], the EC50 in test [1] is 5 to 10 µM; in test [3], less than 5 µM. The IC50 (as a rule, the midpoint of a concentration-inhibition curve) in test [2] is less than 5 µM.

`NS(=O)(=O)c1ccc(Nc2ncc3cccc(-c4ccc(-c5ccn[nH]5)cc4)c3n2)cc1` [Compound 732, 4-(8-(4-(1H-pyrazol-5-yl)phenyl)quinazolin-2-ylamino)benzenesulfonamide]: the EC50 in test [1] and in test [3] was less than 5 µM each time. The IC50 in test [2] was less than 5 µM.

Regarding `CN1CCCC(Oc2cccc3cnc(Nc4ccc(S(N)(=O)=O)cc4)nc23)C1` (stereo not drawn) [Compound 733, 4-(8-(1-methylpiperidin-3-yloxy)quinazolin-2-ylamino)benzenesulfonamide], the EC50 in test [1] and in test [3] was less than 5 µM throughout. Further, the IC50 in test [2] is less than 5 µM.

In the case of `NC(=O)c1cccc(-c2cccc3cnc(Nc4ccc(S(N)(=O)=O)cc4)nc23)c1` [Compound 734, 3-(2-(4-sulfamoylphenylamino)quinazolin-8-yl)benzamide], the EC50 in test [1] and in test [3] was less than 5 µM throughout. Moreover, the IC50 in test [2] was less than 5 µM.

In the case of `CS(=O)(=O)c1cccc(-c2cccc3cnc(Nc4ccc(S(N)(=O)=O)cc4)nc23)c1` [Compound 735, 4-(8-(3-(methysulfonyl)phenyl)quinazolin-2-ylamino)benzenesulfonamide], the EC50 in test [1] and in test [3] was less than 5 µM throughout. For the same molecule, in test [2], the IC50 was less than 5 µM.

As for `CS(=O)(=O)Nc1cccc(-c2cccc3cnc(Nc4ccc(S(N)(=O)=O)cc4)nc23)c1` [Compound 736, 4-(8-(3-(methylsulfonamido)phenyl)quinazolin-2-ylamino)benzenesulfonamide], the EC50 in test [1] and in test [3] was less than 5 µM each time. The concentration for half-maximal inhibition (IC50) in test [2] is less than 5 µM.

`CC(=O)Nc1cccc(-c2cccc3cnc(Nc4ccc(S(N)(=O)=O)cc4)nc23)c1` [Compound 737, N-(3-(2-(4-sulfamoylphenylamino)quinazolin-8-yl)phenyl)acetamide]: the EC50 in test [1] and in test [3] was less than 5 µM in each case. Besides, the IC50 in test [2] is less than 5 µM.

On to `NS(=O)(=O)c1ccc(Nc2ncc3cccc(-c4cccc(S(N)(=O)=O)c4)c3n2)cc1` [Compound 738, 3-(2-(4-sulfamoylphenylamino)quinazolin-8-yl)benzenesulfonamide], for which the EC50 in test [1] and in test [3] was less than 5 µM each time. The IC50 in test [2] is less than 5 µM.

As for `NS(=O)(=O)c1ccc(Nc2ncc3cccc(-c4ccc5c(c4)OCO5)c3n2)cc1` [Compound 739, 4-(8-(benzo[d][1,3]dioxol-5-yl)quinazolin-2-ylamino)benzenesulfonamide], the EC50 in test [1] and in test [3] was less than 5 µM each time. Besides, in test [2], the IC50 was less than 5 µM.

Turning to `NC(=O)c1ccc(-c2cccc3cnc(Nc4ccc(S(N)(=O)=O)cc4)nc23)cc1` [Compound 740, 4-(2-(4-sulfamoylphenylamino)quinazolin-8-yl)benzamide], the EC50 in test [1] was 5 to 10 µM; in test [3], less than 5 µM. Moreover, in test [2], the IC50 was less than 5 µM.

As to `NS(=O)(=O)c1ccc(Nc2ncc3cccc(-c4ccnc(F)c4)c3n2)cc1` [Compound 741, 4-(8-(2-fluoropyridin-4-yl)quinazolin-2-ylamino)benzenesulfonamide], the EC50 in test [1] and in test [3] was less than 5 µM throughout. The IC50 in test [2] is less than 5 µM.

With `NS(=O)(=O)c1ccc(Nc2ncc3cccc(-c4cccnc4)c3n2)cc1` [Compound 742, 4-(8-(pyridin-3-yl)quinazolin-2-ylamino)benzenesulfonamide], the EC50 was 5 to 10 µM in test [1] and less than 5 µM in test [3]. Further, in test [2], the IC50 is less than 5 µM.

In the case of `NS(=O)(=O)c1ccc(Nc2ncc3cccc(-c4ccncc4)c3n2)cc1` [Compound 743, 4-(8-(pyridin-4-yl)quinazolin-2-ylamino)benzenesufonamide], the figures for the EC50 in test [1] and in test [3] were 5 to 10 µM and less than 5 µM, respectively. In test [2], the IC50 is less than 5 µM.

`COCCNc1cc(-c2cccc3cnc(Nc4ccc(S(N)(=O)=O)cc4)nc23)ccn1` [Compound 745, 4-(8-(2-(2-methoxyethylamino)pyridin-4-yl)quinazolin-2-ylamino)benzenesulfonamide]: the EC50 in test [1] and in test [3] was less than 5 µM each time. Also, the IC50 in test [2] was less than 5 µM.

Turning to `CC(=O)NCCNc1cc(-c2cccc3cnc(Nc4ccc(S(N)(=O)=O)cc4)nc23)ccn1` [Compound 746, N-(2-(4-(2-(4-sulfamoylphenylamino)quinazolin-8-yl)pyridin-2-ylamino)ethyl)acetamide], the figures for the EC50 in test [1] and in test [3] were 5 to 10 µM and less than 5 µM, respectively. In addition, the IC50 in test [2] is less than 5 µM.

`NS(=O)(=O)c1ccc(Nc2ncc3cccc(-c4ccnc(NCCN5CCCC5)c4)c3n2)cc1` [Compound 747, 4-(8-(2-(2-(pyrroIidin-1-yl)ethylamino)pyridin-4-yl)quinazolin-2-ylamino)benzenesulfonamide]: the EC50 in test [1] and in test [3] was less than 5 µM in each case. Also, the IC50 in test [2] is less than 5 µM.

As to `NS(=O)(=O)c1ccc(Nc2ncc3cccc(-c4cnoc4)c3n2)cc1` [Compound 748, 4-(8-(isoxazol-4-yl)quinazolin-2-ylamino)benzenesulfonamide], the EC50 in test [1] and in test [3] was less than 5 µM in each case. Moreover, in test [2], the IC50 was less than 5 µM.

For `NS(=O)(=O)c1ccc(Nc2ncc3cccc(-c4cn[nH]c4)c3n2)cc1` [Compound 751, 4-(8-(1H-pyrazol-yl)quinazolin-2-ylamino)benzenesulfonamide], the EC50 in test [1] and in test [3] was less than 5 µM in each case. Further, the IC50 in test [2] is less than 5 µM.

For `NS(=O)(=O)c1ccc(Nc2ncc3cccc(-c4ccnc(N5CCOCC5)c4)c3n2)cc1` [Compound 752, 4-(8-(2-morpholinopyridin-4-yl)quinazolin-2-ylamino)benzenesulfonamide], the EC50 in test [1] and in test [3] was less than 5 µM each time. Also, in test [2], the IC50 is less than 5 µM.

Regarding `CN1CCN(c2cc(-c3cccc4cnc(Nc5ccc(S(N)(=O)=O)cc5)nc34)ccn2)CC1` [Compound 753, 4-(8-(2-(4-methylpiperazin-1-yl)pyridin-4-yl)quinazolin-2-ylamino)benzenesulfonamide], the EC50 in test [1] and in test [3] was less than 5 µM each time. Further, the IC50 in test [2] was less than 5 µM.

As to `NS(=O)(=O)c1ccc(Nc2ncc3cccc(-c4ccnc(N5CCS(=O)(=O)CC5)c4)c3n2)cc1` [Compound 754], the EC50 in test [1] and in test [3] was less than 5 µM each time. Besides, the IC50 in test [2] was less than 5 µM.

On to `NS(=O)(=O)c1ccc(Nc2ncc3cccc(-c4ccnc(N5CCNC(=O)C5)c4)c3n2)cc1` [Compound 755, 4-(8-(2-(3-oxopiperazin-1-yl)pyridin-4-yl)quinazolin-2-ylamino)benzenesulfonamide], for which the EC50 in test [1] and in test [3] was less than 5 µM each time. In addition, in test [2], the IC50 is less than 5 µM.

On to `Nc1cc(-c2cccc3cnc(Nc4ccc(S(N)(=O)=O)cc4)nc23)ccn1` [Compound 756, 4-(8-(2-aminopyridin-4-yl)quinazolin-2-ylamino)benzenesulfonamide], for which the EC50 in test [1] is 5 to 10 µM; in test [3], less than 5 µM. Also, in test [2], the IC50 is less than 5 µM.

For `NS(=O)(=O)c1ccc(Nc2ncc3cccc(-c4ccccc4)c3n2)cc1` [Compound 757, 4-(8-phenylquinazolin-2-ylamino)benzenesulfonamide], the EC50 in test [1] and in test [3] was less than 5 µM throughout. Moreover, in test [2], the IC50 is less than 5 µM.

In the case of `NC(=O)c1ccc(-c2ccc3cnc(Nc4ccc(S(N)(=O)=O)cc4)nc3c2)cc1F` [Compound 759, 2-fluoro-4-(2-(4-sulfamoylphenylamino)quinazolin-7-yl)benzamide], the EC50 is 5 to 10 µM in test [1] and less than 5 µM in test [3]. For the same molecule, the concentration for half-maximal inhibition (IC50) in test [2] is less than 5 µM.

As to `NS(=O)(=O)c1ccc(Nc2ncc3cccc(C(=O)N4CCCC4)c3n2)cc1` [Compound 760, 4-(8-(pyrrolidine-1-carbonyl)quinazolin-2-ylamino)benzenesulfonamide], the EC50 was 5 to 10 µM in test [1] and less than 5 µM in test [3]. In addition, in test [2], the half-maximal inhibitory concentration (IC50) is less than 5 µM.
